{
  "source": "paper PMC10224329",
  "about": "“Design, Synthesis, and Antiproliferative Activity of Benzopyran-4-One-Isoxazole Hybrid Compounds” (Molecules, 2023)",
  "test_system": "MDA-MB-231 cells",
  "test": "Annexin V-FITC/PI apoptosis assay by flow cytometry",
  "assay_type": "cell-based, human",
  "procedure": "In accordance with the MTS assay, compound 5a had promising antiproliferative action. Therefore, we attempted to study the mechanism triggering cell death. […] MDA-MB-231 cells were treated with 5 μM of compound 5a and Dox (5 μM) as a positive control and incubated for 72 h, then double-stained carefully by membrane-linked protein Annexin-V fluorescein isothiocyanate (FITC) and propidium iodide (PI) for flow cytometry analysis. Normally, in the early stages of apoptosis, phosphatidylserine flips from the inner cell membrane to the surface of the cell membrane. […] PI is a nucleic acid dye that can only cross the membrane of advanced apoptosis and necrotic cells and redden the nucleus. Consequently, when the treated cells are double stained by the two fluorescent dyes, early and late apoptosis and necrotic cells can be clearly distinguished. […] These findings illustrated that compound 5a mainly leads to the early apoptosis of MDA-MB-231 cells.\nThe assay was detected using a commercially available kit (FITC Annexin V Apoptosis Detection Kit II, BD Biosciences, San Jose, CA, USA) per the manufacturer’s instructions. Briefly, MDA-MB-231 cells were seeded in 6-well plates at a concentration of 1 × 10^6 cells/well for 24 h; after that, cells were treated with 5a (5 µM) for 72 h. Dox (5 µM) was used as a positive control. After the treatment period, cells were washed with cold phosphate-buffered saline (PBS) twice. The cells were collected after trypsin treatment and centrifugated to get a pellet, and a binding buffer (1X) was used to resuspend the cells. Annexin V (5 μL) and propidium iodide (PI) (5 μL) were mixed with 100 μL of the suspended cells (1 × 10^6 cells/mL), followed by 15 min incubation at room temperature in the dark. The mixture was diluted by adding 400 μL of 1× binding buffer, and the cells were analyzed using flow cytometry, FACS Verse (BD Biosciences, USA). The experiment was repeated three times independently.",
  "data": [
    {"smiles": "Cc1noc(C)c1C(=O)OCc1coc2ccccc2c1=O", "note": "[Compound 5a, (4-Oxo-4H-1-benzopyran-3-yl)methyl 3,5-dimethylisoxazole-4-carboxylate]", "values": [
      {"measurement": "induced apoptosis in MDA-MB-231", "setting": "5 μM concentration, compared to untreated cells", "value": 50.8, "unit": "%"},
      {"measurement": "Early Apoptosis", "setting": "MDA-MB-231, 5 μM, 72 h", "value": 47.52, "unit": "%"},
      {"measurement": "Late Apoptosis", "setting": "MDA-MB-231, 5 μM, 72 h", "value": 3.28, "unit": "%"}
    ]}
  ]
}
